These results are taken from patent US4728732A, “C-3'acylsulfonamido cephalosporin analogs” (American Home Products Corporation, priority 1985, dated 1988).

What all share (type): cell-based
In assay [1] the test system is Escherichia coli ATCC 25922. In words: MIC, procedure A (two-fold dilutions in broth, Microtiter plate). Conditions: ATCC25922. The method, then: (§1) The compounds of the invention are tested for their antibacterial activity. The test can be carried out in two ways:
(§2) A. The organisms used in the test comprise the following:
(§3) Staphylococcus aureus (penicillin-sensitive and resistant), Pseudomonas aeruginosa, Escherichia coli, […] pneumoniae, Bordetella bronchiseptica, Proteus vulgaris, P. mirabilis, Acinetobacter calcoaceticus.
(§4) Test organisms may be added or deleted in order to reflect current clinical patterns of antibiotic susceptibility or shifts in pathogenic potential.
(§5) Stock solution of appropriate medium (e.g. Mueller-Hinton Broth) is sterilized. Starting at a predetermined concentration (e.g. 250 μg/ml), two-fold dilutions are made with the Dynatech Automatic Diluter in a Microtiter plate of 8 rows of 12 wells each in which 11 wells in each row contain 50 μl of medium (e.g. Mueller-Hinton Broth) and the 12th well contains in 100 μl an aliquot of the compound to be tested. The diluted plates are inoculated using the Dynatech Automatic Inoculator which delivers the final inoculum (e.g. 10^5 cfu/ml of a seven-hour culture which has been incubated at 35° C.).
(§6) Plates are sealed with tape and incubated (e.g. 18 hours at 35° C.).

Assay [2] deals with Klebsiella pneunomiae KL-1. The assay is described as above. The conditions noted are these: KL1. The method, then: as §1, §2, §3, §4, §5, §6
For assay [3], the system named is Enterobacter cloacae ATCC 13047. Described as above. Conditions: ATCC13047. As for the experimental part:
as §1, §2, §3, §4, §5, §6

Assay [4] has as its system Serratia marcescens ATCC 13880. The description is as above. The conditions noted are these: ATCC13880. As for the experimental part:
as §1, §2, §3, §4, §5, §6

The subject of assay [5] is Proteus vulgaris A 84354 1. The description is as above. Conditions: A843541. As for the experimental part: as §1, §2, §3, §4, §5, §6
Assay [6] concerns Pseudomonas aeruginosa ATCC 27853. The assay is described as above. Conditions: ATCC27853. The method, then: as §1, §2, §3, §4, §5, §6
Assay [7] concerns Streptococcus faecalis ATCC 29212. Described as above. The conditions noted are these: Enterococcus faecalis, ATCC29212. The method, then:
as §1, §2, §3, §4, §5, §6

For assay [8], the system named is Staphylococcus aureus ATCC 29213. Described as above. Conditions: ATCC29213. As for the experimental part:
as §1, §2, §3, §4, §5, §6

Assay [9] has as its system Escherichia coli ATCC 25922. In words: MIC, procedure B (agar, Steers replicating device). Conditions: ATCC25922. As for the experimental part:
as §1
(§7) B. The organisms used in the test comprise the following:
as §3, §4
(§8) Organisms are normally grown for 18 hours in Brain Heart Infusion at 35° C. Cultures are adjusted with saline to MacFarland No. 1.5 standard prior to use.
(§9) Stock concentrations (e.g […] or units per ml) are prepared in a suitable vehicle. Two-fold dilutions are made. One ml quantities of each dilution are incorporated in 9 ml of the appropriate agar (e.g. Seed) in sterile Petri plates. The hardened surface is inoculated with test organisms by use of a Steers replicating device. The plates are incubated (e.g. 18 hours at 35° C.) and activity is determined.

Assay [10] concerns Klebsiella pneunomiae KL-1. Description: MIC, procedure B (agar, Steers replicating device). The conditions noted are these: KL1. The method, then:
as §1, §7, §3, §4, §8, §9

In assay [11] the test system is Enterobacter cloacae ATCC 13047. In words: MIC, procedure B (agar, Steers replicating device). The conditions noted are these: ATCC13047. The method, then: as §1, §7, §3, §4, §8, §9
Assay [12] concerns Serratia marcescens ATCC 13880. Description: MIC, procedure B (agar, Steers replicating device). Conditions: ATCC13880. As for the experimental part:
as §1, §7, §3, §4, §8, §9

The subject of assay [13] is Proteus vulgaris A 84354 1. In words: MIC, procedure B (agar, Steers replicating device). The conditions noted are these: A843541. The method, then:
as §1, §7, §3, §4, §8, §9

The test system of assay [14] is Pseudomonas aeruginosa ATCC 27853. In words: MIC, procedure B (agar, Steers replicating device). The conditions noted are these: ATCC27853. As for the experimental part:
as §1, §7, §3, §4, §8, §9

For assay [15], the system named is Streptococcus faecalis ATCC 29212. Description: MIC, procedure B (agar, Steers replicating device). Conditions: Enterococcus faecalis, ATCC29212. As for the experimental part:
as §1, §7, §3, §4, §8, §9

For assay [16], the system named is Staphylococcus aureus ATCC 29213. In words: MIC, procedure B (agar, Steers replicating device). Conditions: ATCC29213. As for the experimental part:
as §1, §7, §3, §4, §8, §9

Values after ≈ are worked out from the molar mass of the structure shown.

On to `CO/N=C(\C(=O)N[C@@H]1C(=O)N2C(C(=O)OC(C)(C)C)=C(CN3C(=O)c4cscc4S3(=O)=O)CS[C@H]12)c1csc(N)n1` [1 B.], for which the minimum inhibitory concentration (MIC) amounted to 8 µg/mL (≈ 12.5 µM) in assay [1]; 4 µg/mL (≈ 6.24 µM) in [2]; 64 µg/mL (≈ 99.9 µM) in assay [3]; 32 µg/mL (≈ 49.9 µM) in assay [4]; 4 µg/mL (≈ 6.24 µM) in [5]; 128 µg/mL (≈ 200 µM) in assay [6]. For the same compound, the results for the MIC in assay [7] and in assay [8] were 256 µg/mL (≈ 400 µM) and 32 µg/mL (≈ 49.9 µM), respectively.
On to `CO/N=C(\C(=O)N[C@@H]1C(=O)N2C(C(=O)O)=C(CN3C(=O)c4cscc4S3(=O)=O)CS[C@H]12)c1csc(N)n1` [1 C.], for which the MIC in assay [9] was determined as 2 µg/mL (≈ 3.42 µM); in [10], 1 µg/mL (≈ 1.71 µM); in assay [11] it was 4 µg/mL (≈ 6.84 µM); in assay [12], 2 µg/mL (≈ 3.42 µM); in [13] it was 0.5 µg/mL (≈ 0.855 µM); in assay [14], 64 µg/mL (≈ 109 µM). Also, the MIC worked out at 8 µg/mL (≈ 13.7 µM) in assay [15] and 4 µg/mL (≈ 6.84 µM) in assay [16].
Consider `CO/N=C(\C(=O)N[C@@H]1C(=O)N2C(C(=O)OC(C)(C)C)=C(CN3C(=O)c4ccccc4S3(=O)=O)CS[C@H]12)c1csc(N)n1` [2 B.], for which the minimum inhibitory concentration (MIC) in assay [1] was 2 µg/mL (≈ 3.15 µM); in assay [2], 1 µg/mL (≈ 1.58 µM); in [3], 16 µg/mL (≈ 25.2 µM); in assay [4], 8 µg/mL (≈ 12.6 µM); in [5], 1 µg/mL (≈ 1.58 µM); in assay [6], 64 µg/mL (≈ 101 µM). In addition, the MIC was found to be 16 µg/mL (≈ 25.2 µM) in [7] and 8 µg/mL (≈ 12.6 µM) in [8].
For the compound `CO/N=C(\C(=O)N[C@@H]1C(=O)N2C(C(=O)O)=C(CN3C(=O)c4ccccc4S3(=O)=O)CS[C@H]12)c1csc(N)n1` [2 C.], the minimal inhibitory concentration (MIC) was found to be 1 µg/mL (≈ 1.73 µM) in assay [9]; 0.5 µg/mL (≈ 0.864 µM) in assay [10]; 8 µg/mL (≈ 13.8 µM) in [11]; 4 µg/mL (≈ 6.91 µM) in [12]; 0.5 µg/mL (≈ 0.864 µM) in [13]; 32 µg/mL (≈ 55.3 µM) in assay [14]. Besides, the MIC in assay [15] is 8 µg/mL (≈ 13.8 µM); in assay [16], 4 µg/mL (≈ 6.91 µM).
On to `CO/N=C(\C(=O)N[C@@H]1C(=O)N2C(C(=O)OC(C)(C)C)=C(CN3C(=O)c4cccnc4S3(=O)=O)CS[C@H]12)c1csc(N)n1` [3 B.], for which the minimal inhibitory concentration (MIC) in assay [1] is 4 µg/mL (≈ 6.29 µM); in assay [2] it was 2 µg/mL (≈ 3.15 µM); in assay [3] it was 128 µg/mL (≈ 201 µM); in assay [4], 8 µg/mL (≈ 12.6 µM); in [5] it was 8 µg/mL (≈ 12.6 µM); in assay [6], 256 µg/mL (≈ 403 µM). The MIC worked out at 256 µg/mL (≈ 403 µM) in assay [7] and 128 µg/mL (≈ 201 µM) in [8].
Consider `CO/N=C(\C(=O)N[C@@H]1C(=O)N2C(C(=O)O)=C(CN3C(=O)c4cccnc4S3(=O)=O)CS[C@H]12)c1csc(N)n1` [3 C.], for which the MIC in assay [9] worked out at 2 µg/mL (≈ 3.45 µM); in assay [10], 1 µg/mL (≈ 1.73 µM); in assay [11] it was 16 µg/mL (≈ 27.6 µM); in assay [12], 2 µg/mL (≈ 3.45 µM); in [13] it was 2 µg/mL (≈ 3.45 µM); in assay [14], 128 µg/mL (≈ 221 µM). Besides, the MIC came to 128 µg/mL (≈ 221 µM) in assay [15] and 32 µg/mL (≈ 55.2 µM) in assay [16].

Usually MIC stands for the smallest concentration in the dilution series that meets the test's criterion for growth inhibition. The low end stands for a more susceptible organism, the high end for a less susceptible organism.
